# Test results taken from patent US6080739A (priority 1996, dated 2000).
# Read-outs that look alike come from different tables or passages of the source.
# Legend:
# MCF7-ADR [1] = test system: MCF7-ADR
# MCF-7 = assay: cells; format: cell-based; conditions: Homo sapiens, MCF7, read-out: IC50 MCF-7
# MCF7-ADR [2] = assay: cells; conditions: Homo sapiens, NCI/ADR-RES, read-out: IC50 MCF7-ADR
compound,measurement,setting,value
COc1cc2c(c(OC)c1OC)-c1ccc(OC)c(=O)cc1[C@@H](NC(C)=O)CC2 [Colchicine],MCF7-ADR/MCF7,MCF7-ADR [1]; ratio of IC50 resistant to normal cells,"6,600"
COc1cc2c(c(OC)c1OC)-c1ccc(SC)c(=O)cc1C1=Nc3cc(C(C)(C)C)cc(C(C)(C)C)c3OC1C2 (stereo not shown) [Compound IIa],IC50,MCF-7,17 nM
"COc1cc2c(c(OC)c1OC)-c1ccc(SC)c(=O)cc1C(=O)CC2 [Compound Ia, Thiocolchicone]",IC50,MCF-7,6.2 nM
"COc1cc2c(c(OC)c1OC)-c1ccc(OC)c(=O)cc1C(=O)CC2 [Compound Ib, Colchicone]",IC50,MCF-7,23 nM
CC(=O)O[C@H]1C(=O)[C@@]2(C)[C@H]([C@H](OC(=O)c3ccccc3)[C@]3(O)C[C@H](OC(=O)[C@H](O)[C@@H](NC(=O)c4ccccc4)c4ccccc4)C(C)=C1C3(C)C)[C@]1(OC(C)=O)CO[C@@H]1C[C@@H]2O [Taxol],IC50,MCF7-ADR [2],2400 nM
same,MCF7-ADR/MCF7,"MCF7-ADR [1]; human, mcf7-adr / mcf7 cells","1,043"
same,IC50,MCF-7,2.3 nM
